Experiment: xn = mol fraction of the nth substance listed

NCc1ccccc1 + C1CCOC1
303.15 K, 101 kPa
Details | viscosity [mPa·s]
x1 = 0.0768 | 0.522
x1 = 0.1577 | 0.576
x1 = 0.2429 | 0.636
x1 = 0.333 | 0.705
x1 = 0.4282 | 0.785
x1 = 0.529 | 0.876
x1 = 0.636 | 0.981
x1 = 0.7497 | 1.104
x1 = 0.8708 | 1.247

CC(C)NC(C)C + CCCCO
viscosity [mPa·s], 100 kPa
Details | 298.15 K | 303.15 K | 308.15 K
x1 = 0.0499 | 2.316 | 2.061 | 1.793
x1 = 0.1095 | 2.056 | 1.834 | 1.609
x1 = 0.1542 | 1.88 | 1.688 | 1.483
x1 = 0.2062 | 1.699 | 1.529 | 1.353
x1 = 0.25 | 1.552 | 1.405 | 1.251
x1 = 0.2969 | 1.414 | 1.285 | 1.149
x1 = 0.4059 | 1.129 | 1.037 | 0.94
x1 = 0.5062 | 0.916 | 0.849 | 0.777
x1 = 0.6009 | 0.755 | 0.707 | 0.656
x1 = 0.7043 | 0.62 | 0.583 | 0.548
x1 = 0.8059 | 0.516 | 0.489 | 0.467
x1 = 0.8543 | 0.477 | 0.451 | 0.432
x1 = 0.8987 | 0.444 | 0.42 | 0.402
x1 = 0.9489 | 0.408 | 0.391 | 0.374

FC(F)C(F)(F)F + FCF
viscosity [mPa·s], 101 kPa
Details | x1 = 0.247 | x1 = 0.49 | x1 = 0.744
298.15 K | 0.1177 | 0.12 | 0.1269
313.15 K | – | – | 0.1021

CCCCCCCCCCCO + CCCCCCCCCCO
Details | viscosity [mPa·s]
293.15 K, 101.33 kPa, x2 = 0.1426 | 16.47
293.15 K, 101.33 kPa, x2 = 0.4429 | 15.7
293.15 K, 101.33 kPa, x2 = 0.6078 | 15.37
293.15 K, 101.33 kPa, x2 = 0.7475 | 15.08
293.15 K, 101.33 kPa, x2 = 0.889 | 14.71
298.15 K, 101 kPa, x2 = 0.6999 | 12.35
298.15 K, 101.33 kPa, x2 = 0.1426 | 13.44
298.15 K, 101.33 kPa, x2 = 0.298 | 13.14
298.15 K, 101.33 kPa, x2 = 0.7475 | 12.33
298.15 K, 101.8 kPa, x2 = 0.1083 | 13.95
298.15 K, 101.8 kPa, x2 = 0.3183 | 13.43
298.15 K, 101.8 kPa, x2 = 0.5207 | 12.98
298.15 K, 101.8 kPa, x2 = 0.7164 | 12.54
308.15 K, 101.8 kPa, x2 = 0.1083 | 9.593
308.15 K, 101.8 kPa, x2 = 0.3183 | 9.242
308.15 K, 101.8 kPa, x2 = 0.5207 | 8.963
308.15 K, 101.8 kPa, x2 = 0.7164 | 8.674
308.15 K, 101.8 kPa, x2 = 0.907 | 8.384
318.15 K, 101.8 kPa, x2 = 0.1083 | 6.748
318.15 K, 101.8 kPa, x2 = 0.3183 | 6.559
318.15 K, 101.8 kPa, x2 = 0.5207 | 6.332
318.15 K, 101.8 kPa, x2 = 0.7164 | 6.148
318.15 K, 101.8 kPa, x2 = 0.907 | 5.962

CC(C)NC(C)C + CC(C)CO
viscosity [mPa·s], 100 kPa
Details | 298.15 K | 303.15 K | 308.15 K
x1 = 0.0559 | 2.916 | 2.467 | 2.005
x1 = 0.1015 | 2.616 | 2.232 | 1.833
x1 = 0.1519 | 2.295 | 1.98 | 1.662
x1 = 0.2069 | 1.995 | 1.738 | 1.459
x1 = 0.2516 | 1.765 | 1.549 | 1.319
x1 = 0.3055 | 1.507 | 1.346 | 1.155
x1 = 0.3944 | 1.194 | 1.067 | 0.931
x1 = 0.4988 | 0.926 | 0.837 | 0.743
x1 = 0.6017 | 0.73 | 0.674 | 0.607
x1 = 0.7131 | 0.586 | 0.553 | 0.509
x1 = 0.8018 | 0.504 | 0.485 | 0.448
x1 = 0.865 | 0.455 | 0.441 | 0.409
x1 = 0.9062 | 0.433 | 0.419 | 0.395
x1 = 0.9423 | 0.409 | 0.396 | 0.379

O=C[C@H](O)[C@@H](O)[C@H](O)[C@H](O)CO + CS(C)=O
viscosity [mPa·s], 101 kPa
Details | x1 = 0.04081 | x1 = 0.08276 | x1 = 0.1291 | x1 = 0.1784
298.15 K | 3.819 | 8.234 | 21.23 | 62.65
308.15 K | 2.988 | 5.977 | 13.9 | 36.04
318.15 K | 2.408 | 4.525 | 9.672 | 22.4

CCCCCCCCCCCO + CCCCCCO
viscosity [mPa·s], 101.8 kPa
Details | x2 = 0.1577 | x2 = 0.4196 | x2 = 0.6279 | x2 = 0.7981 | x2 = 0.9389
298.15 K | 12.3 | 9.508 | 7.506 | 6.064 | 4.788
308.15 K | 8.55 | 6.727 | 5.412 | 4.436 | 3.545
318.15 K | 6.083 | 4.876 | 3.983 | 3.309 | 2.68

S=C=S + CCOCC
298.15 K, 101 kPa
Details | viscosity [mPa·s]
x2 = 0.1341 | 0.338
x2 = 0.3497 | 0.306
x2 = 0.6338 | 0.269

CCCCCCn1cc[n+](C)c1.[Cl-] + CN1CCCC1=O
100 kPa
Details | viscosity [mPa·s]
293.15 K, x1 = 0.0917 | 4.165
293.15 K, x1 = 0.3673 | 49.65
298.15 K, x1 = 0.1861 | 8.485
303.15 K, x1 = 0.3673 | 31.75
308.15 K, x1 = 0.1861 | 6.465

OCCO + CCCO
Details | viscosity [mPa·s]
298.15 K, 101 kPa, x1 = 0.442 | 4.972
298.15 K, 101.33 kPa, x1 = 0.0111 | 2.005
298.15 K, 101.33 kPa, x1 = 0.0207 | 2.055
298.15 K, 101.33 kPa, x1 = 0.0321 | 2.115
298.15 K, 101.33 kPa, x1 = 0.0482 | 2.198
298.15 K, 101.33 kPa, x1 = 0.0722 | 2.331
298.15 K, 101.33 kPa, x1 = 0.0979 | 2.467
298.15 K, 101.33 kPa, x1 = 0.1442 | 2.723
298.15 K, 101.33 kPa, x1 = 0.1912 | 3.012
298.15 K, 101.33 kPa, x1 = 0.2372 | 3.32
298.15 K, 101.33 kPa, x1 = 0.2938 | 3.751
298.15 K, 101.33 kPa, x1 = 0.345 | 4.192
298.15 K, 101.33 kPa, x1 = 0.3886 | 4.617
298.15 K, 101.33 kPa, x1 = 0.4295 | 5.053
298.15 K, 101.33 kPa, x1 = 0.4681 | 5.512
298.15 K, 101.33 kPa, x1 = 0.5096 | 6.052
298.15 K, 101.33 kPa, x1 = 0.5452 | 6.565
298.15 K, 101.33 kPa, x1 = 0.5843 | 7.175
298.15 K, 101.33 kPa, x1 = 0.6533 | 8.397
298.15 K, 101.33 kPa, x1 = 0.6993 | 9.322
298.15 K, 101.33 kPa, x1 = 0.7522 | 10.5
298.15 K, 101.33 kPa, x1 = 0.7998 | 11.68
298.15 K, 101.33 kPa, x1 = 0.84 | 12.75
298.15 K, 101.33 kPa, x1 = 0.8875 | 14.13
298.15 K, 101.33 kPa, x1 = 0.918 | 15.08
298.15 K, 101.33 kPa, x1 = 0.9609 | 16.5
298.15 K, 101.33 kPa, x2 = 0.0188 | 17.2
308.15 K, 101 kPa, x1 = 0.442 | 3.67
318.15 K, 101 kPa, x1 = 0.442 | 2.755

S=C=S + CO
298.15 K, 101.33 kPa
Details | viscosity [mPa·s]
x1 = 0.0437 | 0.5883
x1 = 0.0987 | 0.5838
x1 = 0.1521 | 0.5538
x1 = 0.2248 | 0.5669
x1 = 0.2969 | 0.57
x1 = 0.9488 | 0.4088

Source: the CheMixHub viscosity set
